Test: gradient 5% acetonitrile 3 min, to 50% in 2 min, to 85% in 15 min, held 3 min, 100 µL/min
Conditions: column: Zorbax Extend-C18 2.1 x 50 mm; eluents: water / acetonitrile, 0.1% formic acid
Procedure, shortened: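 Over 3 months, pure standards in mixtures of ~100 molecules were run by HPLC coupled to a quadrupole time-of-flight mass spectrometer in positive and negative ionization mode. The column was a Zorbax Extend-C18 (2.1 × 50 mm, 1.8 μm) at 100 μL/min, eluted with water and acetonitrile each holding 0.1% formic acid, with 40 μL dead and 900 μL dwell volumes. Retention time was determined from adduct peaks chosen by software and checked manually.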

Compound	RP-LC retention time
O=C(Nc1cc(F)cc(F)c1)c1csc(-c2ccc(N3CCCC3)nc2)n1	853 s
CCOc1ccc(NC(=O)C2CCCN(c3ccc(=O)n(-c4ccc(C)c(Cl)c4)n3)C2)cc1 (centres undefined)	1010 s
Cc1ccc(CCNC(=O)Cn2nc(-n3cccc3)c3c(C)cc(C)nc32)cc1	1070 s
Cc1sc2ccn(Cc3ccc(F)cc3)c(=O)c2c1C(=O)N1CCOCC1	713 s
COc1cc(=O)c(C(=O)NC(C)C)nn1-c1ccc(C)cc1	694 s
COc1ccc(NC(=O)Cn2c(C)cc(-c3nnc(-c4ccc(F)cc4)o3)c2C)cc1	952 s
Cc1ccc(-c2noc(Cc3nnc(-c4cccc(C)c4)o3)n2)cc1	1130 s
CC(C)C(=O)NCCc1csc(C2CCCN(C(=O)c3cc4ccccc4[nH]3)C2)n1 (centres undefined)	803 s
CCS(=O)(=O)c1ccc(-c2cccc(NC(=O)c3ccc4ccccc4n3)c2)nn1	912 s
Cn1cc(C(=O)N2CCN(C3CCCCC3)CC2)c2cccnc21	632 s
NS(=O)(=O)c1ccc(CCNC(=O)CCCn2cccc2)cc1	627 s
O=C(Cn1ccn2nc(-c3ccc(F)cc3)c(CO)c2c1=O)Nc1ccc2c(c1)CCC2	908 s
CCOc1c(C)cc(S(=O)(=O)NCC2(O)CCOCC2)cc1C	690 s
COc1cc(=O)c(C(=O)Nc2ccc(S(N)(=O)=O)cc2)nn1-c1ccc(F)cc1	678 s
COc1ccc2nc(-c3ccc(NS(=O)(=O)c4ccccc4C(F)(F)F)cc3)cn2n1	792 s
CCCCN1C(=O)C(C)(C(=O)NCc2cccc(C)c2)Oc2cccnc21 (centres undefined)	1030 s
CCc1ccc(Nc2ncccc2S(N)(=O)=O)cc1	891 s
Cc1nnc(-c2coc(S(=O)(=O)N3CCN(c4ccccn4)CC3)c2)o1	606 s
O=C(NCCN1CCN(c2ccc(Cl)cc2)CC1)C(=O)Nc1cc(F)ccc1F	613 s
O=C(CSc1nnc(NC(=O)c2cccc([N+](=O)[O-])c2)s1)Nc1nccs1	702 s
CC(C)CC(=O)N1CCC(Cc2nnc(-c3ccccc3)o2)CC1	818 s
O=C(O)c1nnn(-c2ccc3c(c2)OCCO3)c1-c1ccncc1	593 s
Cc1ccccc1NC(=O)N1CCC2(CC1)Nc1ccccc1-n1cccc12	982 s

Compound	RP-LC retention time
COc1ccc(NS(=O)(=O)c2ccc(/C=C\c3onc(C)c3NC(C)=O)cc2)cc1	779 s
Cc1ccccc1NC(=O)CN1C(=O)C2CCCCN2c2ccc(S(=O)(=O)N(C)C)cc21 (centres undefined)	607 s
CSc1cccc(NC(=O)c2cccn2Cc2noc(C)n2)c1	899 s
CCc1cc(C(=O)Nc2ccc(OC)cc2)nc2ccnn12	917 s
COc1ccccc1NC(=O)C1CC(=O)N(c2ccc3c(c2)CCN3C(=O)C2CC2)C1 (centres undefined)	778 s
COc1cc(OC)cc(C(=O)NCC(O)Cc2ccccc2)c1 (centres undefined)	706 s
Cc1oc(-c2ccc(C(=O)NCCN(C)C)cc2)nc1CN1CCc2ccccc21	694 s
CCOc1ccc(-c2cc3c(=O)n(Cc4nc(-c5ccccc5OC)no4)ncn3n2)cc1	1050 s
CCOc1cc(-c2ccc(F)cc2)nc2ccc(NS(=O)(=O)c3ccc(C#N)cc3)cc12	801 s
CC1CCCCN1c1cc(-n2cnc(C(=O)Nc3ccc4c(c3)OCCO4)c2)ncn1 (centres undefined)	1040 s
Cc1c(C(=O)N2CCCC2)cnn1-c1ccc(-c2nc(C3CC3)no2)cn1	877 s
O=S(=O)(Nc1ccc(F)cc1F)c1ccc(-c2nnc(C3CCC3)o2)o1	879 s
COc1c(C(=O)NC2CC2)sc2cc(Cl)ccc12	965 s
O=C(CC1CCOCC1)N1CCN(C(=O)c2ccco2)CC1	612 s
CCN1C(=O)C(CC(=O)NCC(C)C)Sc2ncccc21 (centres undefined)	689 s
CCC(C(=O)NCCN1CCOCC1)n1nc(C)c2nn(-c3ccccc3)c(C)c2c1=O (centres undefined)	640 s
O=C(c1c(F)cccc1F)N1CCN=C1N1CCN(c2cccc(Cl)c2)CC1	765 s
CCOC(=O)c1nc(NCCCN2CCN(c3cc(C)ccc3C)CC2)c2ccccc2n1	715 s
CCNC(=O)Nc1ccc(OCC(=O)N2CCN(c3ncccn3)CC2)nc1	604 s
O=C(Cn1nc2c3cc(-c4ccccc4)nn3ccn2c1=O)Nc1ccc(Br)cc1F	923 s
CCc1nc2cc(-c3noc(Cc4cc(OC)cc(OC)c4)n3)ccc2o1	1080 s
Cc1cccc(Oc2nccn3c(=O)n(CC(=O)NC(C)CCc4ccccc4)nc23)c1C (centres undefined)	976 s
CCN1C(=O)c2cc(C(=O)NCc3ccc(N(C)C)cc3)nn2CC1(C)C(=O)NC1CCCC1 (centres undefined)	570 s

Compound	RP-LC retention time
CSc1ccc(CNC(=O)c2cn3ccccc3n2)cc1	692 s
Cc1ccc(NC(=O)CCNc2cnc3cnccn23)cc1Cl	590 s
CCCn1cnc2cc(CNC(=O)Cc3c(Cl)cccc3Cl)ccc21	666 s
O=C(NCC1CCCO1)c1cn(-c2ccc(S(=O)(=O)N3CCCC3)cn2)cn1 (centres undefined)	705 s
Cc1nc(C2(C)CCN(S(=O)(=O)c3ccc(Cl)cc3C)CC2)no1	1040 s
CCn1cc(C(=O)NCCn2c(C)cnc2C2CCC2)cn1	557 s
Cc1ccc(CS(=O)(=O)N2CCC(CN3CCCC(C)C3)CC2)cc1C (centres undefined)	717 s
CSc1ncccc1C(=O)Nc1ccc2c(c1)CCC(=O)N2C	684 s
COCC1CN(C2CCC2)CC12CCN(C(=O)c1cccs1)CC2 (centres undefined)	602 s
CSc1ccc(-c2nc3ccc(C)cn3c2Nc2ccc3c(c2)OCO3)cc1	739 s
Cc1ccc(NC(=O)N2CCC(n3cnc4ccccc4c3=O)CC2)c(C)c1	751 s
Cc1cnc(C2CCC2)n1CC1CCN(C(=O)NC2CCCCC2)CC1	657 s
Cc1nc(-c2ccc(N3CCN(C(=O)c4ccc(F)c(F)c4)CC3)nc2)sc1C	976 s
NC(=O)c1ccsc1NC(=O)c1ccccc1[N+](=O)[O-]	669 s
COc1cccc(CNC(=O)c2nnc(-c3ccc(S(=O)(=O)N(C)C)cc3)o2)c1	827 s
O=C(CCn1cnc2cc(-c3noc(Cc4cccs4)n3)ccc21)N1CCCC1	691 s
CCOc1ccccc1CNC(=O)c1cnc(OC)nc1	702 s
N#Cc1cnc2ccc(F)cc2c1N1CCC(C(=O)N2CCSCC2)CC1	766 s
COc1ccc(Nc2c(-c3ccc(C(=O)O)cc3)nc3cnccn23)cc1OC	663 s
Cc1ccc(N2CC(C(=O)N3CCCC3)CC2=O)cc1 (centres undefined)	640 s
COc1ccccc1Oc1c(C)oc2cc(OCC(=O)N[C@H](C)C(=O)O)ccc2c1=O	710 s
CCCCOc1ccc(-c2ccc(=O)n(Cc3nc(-c4cc(OC)c(OC)c(OC)c4)no3)n2)cc1	1200 s
CSc1nsc(SCC(=O)Nc2nc(-c3ccccc3)cs2)n1	1070 s

Compound	RP-LC retention time
COCCNC(=O)c1nnc(-c2ccc(S(=O)(=O)N3CCOCC3)cc2)o1	668 s
Cc1c(-c2noc(-c3ccc4cc[nH]c4c3)n2)nnn1Cc1ccccc1	1010 s
COc1ccc(C2C(C(=O)Nc3cc(OC)c(OC)c(OC)c3)c3ccccc3C(=O)N2C)cc1 (centres undefined)	815 s
CCOc1cccc(CNc2c(-c3nc(C)no3)cnc3nc(C)ccc23)c1	724 s
COc1ccc2nc3oc(C(=O)NCCN4CCN(C)CC4)cc3cc2c1	597 s
CCn1ccc(C(=O)NCc2c(-c3ccccc3)nc3sc(C)nn23)n1	743 s
O=C1CC(c2noc(CCc3ccccc3)n2)CN1c1ccccc1 (centres undefined)	956 s
COCc1nc(-c2ccc(OC3CCN(Cc4ccc(C(F)(F)F)cc4)C3)cc2)no1 (centres undefined)	751 s
COc1ccc(CCNC(=O)C(=O)NCc2ccc(F)cc2)cc1OC	770 s
CCN1CCCn2nc(C3CCN(S(=O)(=O)c4ccc(C)c(C)c4)CC3)cc2C1=O	891 s
O=C(NC1CCCC1)c1c[nH]c2ncccc12	625 s
CCn1cc(CCN2CCN(S(=O)(=O)c3cc(C)cc(C)c3)CC2)c2cccnc21	698 s
O=C(Cn1nc(-c2ccco2)ccc1=O)NCCOc1cc(N2CCCCC2)ncn1	588 s
Cc1nnc(NC(=O)c2nc(-c3cnccn3)no2)s1	598 s
O=c1c2scc(-c3ccc(Br)cc3)c2ncn1Cc1cccnc1	775 s
Cc1ccc(S(=O)(=O)N2CCc3c(c(-c4nnc(-c5ccc(F)cc5)o4)nn3C)C2)cc1Cl	1040 s
O=c1c(=O)n(-c2ccc(Cl)cc2)ccn1Cc1nc(-c2ccccc2)no1	860 s
O=C(Cc1ccc(F)cc1)Nc1nnc(C2CC(=O)N(c3ccc(Cl)cc3)C2)o1 (centres undefined)	789 s
Cc1nc2c(C(=O)NCCN(C)C)cnn2c(C)c1Cc1ccccc1Cl	674 s
CCCN1C(=O)c2cc(S(=O)(=O)N3CCCCC3CC)ccc2Oc2cccnc21 (centres undefined)	1260 s
